Measurements taken from paper PMC6704710, “Preclinical evaluation of 3D185, a novel potent inhibitor of FGFR1/2/3 and CSF-1R, in FGFR-dependent and macrophage-dominant cancer models” (Journal of Experimental & Clinical Cancer Research : CR, 2019).
pIC50: −log10 of the molar value.

Tests used:
Test in all cases: Eurofins kinase panel
Assay type in all cases: biochemical
MAK(h) = target: T1, MAK(h) (Homo sapiens, UniProt P20794); conditions: read-out: Inhibition rate (%)
T1 construct: purchased Eurofins (KinaseProfiler)
T1 sequence (P20794 1-623): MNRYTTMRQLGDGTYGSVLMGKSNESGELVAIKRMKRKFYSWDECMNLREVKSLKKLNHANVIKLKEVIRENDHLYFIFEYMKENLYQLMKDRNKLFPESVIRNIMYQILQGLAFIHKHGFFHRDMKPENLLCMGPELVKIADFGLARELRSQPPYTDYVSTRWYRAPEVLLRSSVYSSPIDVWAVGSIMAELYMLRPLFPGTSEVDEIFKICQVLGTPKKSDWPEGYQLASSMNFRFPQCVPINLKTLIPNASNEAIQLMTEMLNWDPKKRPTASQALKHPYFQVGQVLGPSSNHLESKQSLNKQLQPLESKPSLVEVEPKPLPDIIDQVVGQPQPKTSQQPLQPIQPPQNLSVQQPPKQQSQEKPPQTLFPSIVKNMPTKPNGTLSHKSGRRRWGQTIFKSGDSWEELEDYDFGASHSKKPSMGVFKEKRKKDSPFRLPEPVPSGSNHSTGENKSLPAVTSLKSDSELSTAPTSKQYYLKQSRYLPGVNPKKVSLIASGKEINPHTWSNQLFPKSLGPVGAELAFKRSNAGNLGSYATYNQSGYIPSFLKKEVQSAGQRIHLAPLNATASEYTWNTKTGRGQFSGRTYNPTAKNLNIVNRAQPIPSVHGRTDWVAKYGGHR

VRK2(h) = target: T2, VRK2(h) (Homo sapiens, UniProt Q86Y07); conditions: read-out: Inhibition rate (%)
T2 construct: purchased Eurofins (KinaseProfiler)

PIP5K1α(h) = target: T3, PIP5K1α(h) (Homo sapiens, UniProt Q99755); conditions: read-out: Inhibition rate (%)
T3 construct: purchased Eurofins (KinaseProfiler)

DYRK2(h) = target: T4, DYRK2(h) (Homo sapiens, UniProt Q92630); conditions: read-out: Inhibition rate (%)
T4 construct: purchased Eurofins (KinaseProfiler)
T4 sequence (Q92630 1-601): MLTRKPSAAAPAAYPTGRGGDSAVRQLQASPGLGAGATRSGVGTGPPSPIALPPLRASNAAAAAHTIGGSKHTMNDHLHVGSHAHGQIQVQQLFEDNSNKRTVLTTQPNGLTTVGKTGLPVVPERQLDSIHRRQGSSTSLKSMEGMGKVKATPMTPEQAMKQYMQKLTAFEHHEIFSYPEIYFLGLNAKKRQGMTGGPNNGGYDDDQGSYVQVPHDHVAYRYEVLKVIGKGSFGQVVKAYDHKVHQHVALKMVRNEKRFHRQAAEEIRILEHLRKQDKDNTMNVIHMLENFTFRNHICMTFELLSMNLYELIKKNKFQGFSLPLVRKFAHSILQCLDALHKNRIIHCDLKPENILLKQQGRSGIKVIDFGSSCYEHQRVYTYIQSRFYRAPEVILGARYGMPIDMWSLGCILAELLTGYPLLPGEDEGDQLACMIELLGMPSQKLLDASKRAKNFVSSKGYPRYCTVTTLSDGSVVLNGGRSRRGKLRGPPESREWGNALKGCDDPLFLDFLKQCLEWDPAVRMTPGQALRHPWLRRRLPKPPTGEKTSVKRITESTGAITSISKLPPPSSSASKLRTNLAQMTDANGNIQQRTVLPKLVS

ROCK-I(h) = target: T5, ROCK-I(h) (Homo sapiens, UniProt Q13464); conditions: read-out: Inhibition rate (%)
T5 construct: purchased Eurofins (KinaseProfiler)

FGFR2(h) = FGFR2(h) (Homo sapiens, UniProt P21802)
PRK2(h) = target: T6, PRK2(h) (Homo sapiens, UniProt Q16513); conditions: read-out: Inhibition rate (%)
T6 construct: purchased Eurofins (KinaseProfiler)

MOK(h) = target: T7, MOK(h) (Homo sapiens, UniProt Q9UQ07); conditions: read-out: Inhibition rate (%)
T7 construct: purchased Eurofins (KinaseProfiler)
T7 sequence (Q9UQ07 1-419): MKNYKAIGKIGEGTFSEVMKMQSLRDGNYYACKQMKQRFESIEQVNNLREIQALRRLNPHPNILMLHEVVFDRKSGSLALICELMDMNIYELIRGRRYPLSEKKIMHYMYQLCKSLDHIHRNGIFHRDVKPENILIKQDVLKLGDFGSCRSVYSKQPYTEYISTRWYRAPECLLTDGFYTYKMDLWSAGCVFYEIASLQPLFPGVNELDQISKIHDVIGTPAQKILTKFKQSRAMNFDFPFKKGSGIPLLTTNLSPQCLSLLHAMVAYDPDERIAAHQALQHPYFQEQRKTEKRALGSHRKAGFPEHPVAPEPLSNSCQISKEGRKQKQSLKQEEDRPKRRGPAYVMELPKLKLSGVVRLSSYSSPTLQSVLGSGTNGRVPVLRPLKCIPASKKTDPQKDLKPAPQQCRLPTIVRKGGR

JNK2α2(h) = target: T8, JNK2α2(h) (Homo sapiens, UniProt P45984); conditions: read-out: Inhibition rate (%)
T8 construct: purchased Eurofins (KinaseProfiler)
T8 sequence (P45984 whole entry): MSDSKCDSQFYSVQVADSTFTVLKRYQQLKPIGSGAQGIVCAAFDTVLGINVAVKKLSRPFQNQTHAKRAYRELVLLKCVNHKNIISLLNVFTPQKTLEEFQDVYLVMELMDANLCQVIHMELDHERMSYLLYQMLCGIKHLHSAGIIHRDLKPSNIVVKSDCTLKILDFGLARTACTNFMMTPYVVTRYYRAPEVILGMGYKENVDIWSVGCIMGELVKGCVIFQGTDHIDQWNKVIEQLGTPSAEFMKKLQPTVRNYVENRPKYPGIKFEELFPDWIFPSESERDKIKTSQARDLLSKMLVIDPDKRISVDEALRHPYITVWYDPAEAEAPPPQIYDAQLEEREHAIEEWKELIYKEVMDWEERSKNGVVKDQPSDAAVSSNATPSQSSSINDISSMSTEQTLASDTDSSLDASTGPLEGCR

T5 sequence (Q13464 whole entry): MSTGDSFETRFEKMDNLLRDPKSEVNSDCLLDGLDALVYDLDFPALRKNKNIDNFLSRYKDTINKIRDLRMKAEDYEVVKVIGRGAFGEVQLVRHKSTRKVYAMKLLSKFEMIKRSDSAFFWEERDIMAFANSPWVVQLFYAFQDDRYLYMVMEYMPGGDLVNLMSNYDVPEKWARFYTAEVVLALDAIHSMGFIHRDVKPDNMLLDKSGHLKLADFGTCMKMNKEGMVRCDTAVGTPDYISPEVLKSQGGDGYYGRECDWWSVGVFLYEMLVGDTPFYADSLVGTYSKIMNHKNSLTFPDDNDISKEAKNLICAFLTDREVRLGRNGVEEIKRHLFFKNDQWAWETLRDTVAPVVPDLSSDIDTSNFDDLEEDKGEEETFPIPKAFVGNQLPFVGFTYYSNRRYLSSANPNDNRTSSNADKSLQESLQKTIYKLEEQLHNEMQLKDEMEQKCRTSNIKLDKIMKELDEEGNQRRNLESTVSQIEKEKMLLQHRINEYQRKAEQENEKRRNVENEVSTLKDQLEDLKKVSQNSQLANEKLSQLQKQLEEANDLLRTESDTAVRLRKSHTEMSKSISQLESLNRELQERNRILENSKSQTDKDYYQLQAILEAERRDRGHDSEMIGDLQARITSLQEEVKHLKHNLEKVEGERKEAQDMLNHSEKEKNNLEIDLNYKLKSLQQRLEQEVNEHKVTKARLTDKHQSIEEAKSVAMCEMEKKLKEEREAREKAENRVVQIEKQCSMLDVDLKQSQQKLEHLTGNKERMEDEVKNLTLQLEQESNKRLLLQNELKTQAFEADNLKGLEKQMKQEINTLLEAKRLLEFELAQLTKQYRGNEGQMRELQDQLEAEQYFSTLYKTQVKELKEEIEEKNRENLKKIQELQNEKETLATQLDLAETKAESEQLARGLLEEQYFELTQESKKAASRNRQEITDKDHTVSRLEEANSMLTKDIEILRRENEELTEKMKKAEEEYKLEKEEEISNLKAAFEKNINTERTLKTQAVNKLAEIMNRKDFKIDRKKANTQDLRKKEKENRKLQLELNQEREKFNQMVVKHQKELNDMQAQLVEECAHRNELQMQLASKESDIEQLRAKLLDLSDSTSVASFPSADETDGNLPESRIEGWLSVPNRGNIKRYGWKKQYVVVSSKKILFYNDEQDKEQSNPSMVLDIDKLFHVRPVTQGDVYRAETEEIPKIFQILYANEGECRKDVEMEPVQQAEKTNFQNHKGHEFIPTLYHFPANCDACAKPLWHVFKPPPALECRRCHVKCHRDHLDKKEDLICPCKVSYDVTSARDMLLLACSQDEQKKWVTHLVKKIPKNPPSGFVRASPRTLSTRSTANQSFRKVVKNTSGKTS
Chain of FGFR2(h) (P21802 22-821): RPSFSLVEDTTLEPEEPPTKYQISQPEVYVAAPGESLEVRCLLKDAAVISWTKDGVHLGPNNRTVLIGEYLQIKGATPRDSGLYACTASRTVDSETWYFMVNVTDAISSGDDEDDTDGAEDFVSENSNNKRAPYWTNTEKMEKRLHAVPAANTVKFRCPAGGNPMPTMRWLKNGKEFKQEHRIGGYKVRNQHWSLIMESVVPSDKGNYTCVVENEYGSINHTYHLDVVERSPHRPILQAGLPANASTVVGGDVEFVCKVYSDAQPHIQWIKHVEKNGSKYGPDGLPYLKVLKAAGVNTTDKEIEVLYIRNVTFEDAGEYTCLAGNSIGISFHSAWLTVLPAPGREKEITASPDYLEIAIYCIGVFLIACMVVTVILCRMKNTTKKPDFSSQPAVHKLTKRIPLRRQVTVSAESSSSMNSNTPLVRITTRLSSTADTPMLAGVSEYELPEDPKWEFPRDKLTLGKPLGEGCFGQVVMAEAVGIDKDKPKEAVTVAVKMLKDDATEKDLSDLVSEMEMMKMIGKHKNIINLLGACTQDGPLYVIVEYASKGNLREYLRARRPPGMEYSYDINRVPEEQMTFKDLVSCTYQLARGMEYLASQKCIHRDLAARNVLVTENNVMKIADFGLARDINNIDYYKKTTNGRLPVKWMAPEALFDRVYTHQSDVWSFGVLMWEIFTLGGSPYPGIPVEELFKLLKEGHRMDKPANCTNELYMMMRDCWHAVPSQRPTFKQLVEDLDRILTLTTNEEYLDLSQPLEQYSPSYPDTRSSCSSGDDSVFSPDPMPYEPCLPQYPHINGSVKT
T3 sequence (Q99755 whole entry): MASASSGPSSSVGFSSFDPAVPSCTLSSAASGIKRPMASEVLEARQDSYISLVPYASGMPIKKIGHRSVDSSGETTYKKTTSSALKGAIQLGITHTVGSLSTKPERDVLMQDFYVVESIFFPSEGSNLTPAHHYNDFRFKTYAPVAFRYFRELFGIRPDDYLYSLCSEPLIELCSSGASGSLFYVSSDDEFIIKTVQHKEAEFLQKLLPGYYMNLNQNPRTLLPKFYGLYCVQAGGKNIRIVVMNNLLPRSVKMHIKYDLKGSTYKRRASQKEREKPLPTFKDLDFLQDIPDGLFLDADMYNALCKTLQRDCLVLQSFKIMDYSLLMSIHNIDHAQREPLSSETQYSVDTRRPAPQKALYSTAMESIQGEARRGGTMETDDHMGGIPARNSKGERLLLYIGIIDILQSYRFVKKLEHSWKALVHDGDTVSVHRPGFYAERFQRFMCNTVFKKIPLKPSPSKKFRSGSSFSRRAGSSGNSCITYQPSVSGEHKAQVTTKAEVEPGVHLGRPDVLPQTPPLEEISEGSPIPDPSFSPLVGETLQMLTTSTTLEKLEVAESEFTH
T2 sequence (Q86Y07 whole entry): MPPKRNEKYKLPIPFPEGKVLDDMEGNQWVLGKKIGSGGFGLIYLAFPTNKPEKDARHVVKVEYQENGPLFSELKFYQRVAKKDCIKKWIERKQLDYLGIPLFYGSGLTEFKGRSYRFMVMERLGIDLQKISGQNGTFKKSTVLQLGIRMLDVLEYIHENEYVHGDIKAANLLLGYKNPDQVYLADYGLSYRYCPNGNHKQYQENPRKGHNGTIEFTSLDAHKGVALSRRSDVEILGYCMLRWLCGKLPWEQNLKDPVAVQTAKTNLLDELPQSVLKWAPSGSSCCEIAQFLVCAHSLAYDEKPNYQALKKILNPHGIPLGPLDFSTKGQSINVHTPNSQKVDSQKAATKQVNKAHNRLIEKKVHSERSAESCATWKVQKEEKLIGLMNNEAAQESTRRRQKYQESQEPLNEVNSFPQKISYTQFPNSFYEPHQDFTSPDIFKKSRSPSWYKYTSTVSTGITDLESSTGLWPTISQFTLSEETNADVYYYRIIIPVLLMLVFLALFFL
T6 sequence (Q16513 whole entry): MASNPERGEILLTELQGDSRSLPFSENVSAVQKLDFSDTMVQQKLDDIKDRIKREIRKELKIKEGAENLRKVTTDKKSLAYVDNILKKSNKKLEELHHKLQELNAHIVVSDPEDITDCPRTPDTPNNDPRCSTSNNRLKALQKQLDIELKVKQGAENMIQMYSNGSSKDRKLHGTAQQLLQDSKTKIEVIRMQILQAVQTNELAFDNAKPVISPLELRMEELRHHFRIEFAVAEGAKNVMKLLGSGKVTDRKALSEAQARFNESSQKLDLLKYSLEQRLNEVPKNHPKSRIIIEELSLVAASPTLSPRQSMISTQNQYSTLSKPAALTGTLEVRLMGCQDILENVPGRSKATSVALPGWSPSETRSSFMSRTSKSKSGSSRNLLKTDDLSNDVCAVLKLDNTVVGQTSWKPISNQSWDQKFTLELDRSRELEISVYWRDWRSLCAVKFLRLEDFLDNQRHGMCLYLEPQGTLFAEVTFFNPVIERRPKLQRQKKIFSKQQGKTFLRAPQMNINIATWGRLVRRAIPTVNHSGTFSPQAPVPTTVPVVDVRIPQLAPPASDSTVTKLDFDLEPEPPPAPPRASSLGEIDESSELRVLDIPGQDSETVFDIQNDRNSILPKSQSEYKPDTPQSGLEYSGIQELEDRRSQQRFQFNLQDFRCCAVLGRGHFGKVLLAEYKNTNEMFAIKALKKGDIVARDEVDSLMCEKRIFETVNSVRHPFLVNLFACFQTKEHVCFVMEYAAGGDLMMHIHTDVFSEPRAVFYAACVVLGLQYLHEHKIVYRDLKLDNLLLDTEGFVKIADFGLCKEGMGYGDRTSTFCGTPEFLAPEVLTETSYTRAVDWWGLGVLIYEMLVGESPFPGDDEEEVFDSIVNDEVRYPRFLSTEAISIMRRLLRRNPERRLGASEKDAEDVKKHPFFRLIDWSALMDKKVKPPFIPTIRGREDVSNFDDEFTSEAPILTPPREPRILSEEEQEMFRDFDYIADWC

## COc1cc(OC)c(Cl)c(-c2ccc3c(NC(=O)c4ccc(N5CCNC(C)(C)C5)cc4)n[nH]c3n2)c1Cl [3D185]
MAK(h); 10 nM
  inhibition at 0.01 µM: -1%
MAK(h); 100 nM
  inhibition at 0.1 µM: -9%
MAK(h); 1000 nM
  inhibition at 1 µM: -17%
VRK2(h); 10 nM
  inhibition at 0.01 µM: 4%
VRK2(h); 100 nM
  inhibition at 0.1 µM: 11%
VRK2(h); 1000 nM
  inhibition at 1 µM: 17%
PIP5K1α(h); 10 nM
  inhibition at 0.01 µM: -1%
PIP5K1α(h); 100 nM
  inhibition at 0.1 µM: -4%
PIP5K1α(h); 1000 nM
  inhibition at 1 µM: -9%
DYRK2(h); 10 nM
  inhibition at 0.01 µM: -1%
DYRK2(h); 100 nM
  inhibition at 0.1 µM: -1%
DYRK2(h); 1000 nM
  inhibition at 1 µM: 12%
ROCK-I(h); 10 nM
  inhibition at 0.01 µM: -2%
ROCK-I(h); 100 nM
  inhibition at 0.1 µM: -12%
ROCK-I(h); 1000 nM
  inhibition at 1 µM: -3%
FGFR2(h); estimated from 372-kinase panel
  pIC50: > 8.00
FGFR2(h); read-out: Inhibition rate (%)
  inhibition at 0.01 µM: 93%
  inhibition at 0.1 µM: 98%
  inhibition at 1 µM: 100%
PRK2(h); 10 nM
  inhibition at 0.01 µM: 12%
PRK2(h); 100 nM
  inhibition at 0.1 µM: 4%
PRK2(h); 1000 nM
  inhibition at 1 µM: 3%
MOK(h); 10 nM
  inhibition at 0.01 µM: -7%
MOK(h); 100 nM
  inhibition at 0.1 µM: 6%
MOK(h); 1000 nM
  inhibition at 1 µM: 1%
JNK2α2(h); 10 nM
  inhibition at 0.01 µM: 3%
JNK2α2(h); 100 nM
  inhibition at 0.1 µM: 4%
JNK2α2(h); 1000 nM
  inhibition at 1 µM: 1%
